Experimental data taken from ChEMBL document CHEMBL1152576, “E-Combretastatin and E-resveratrol structural modifications: antimicrobial and cancer cell growth inhibitory beta-E-nitrostyrenes” (Bioorg Med Chem, 2009).
In brackets after ≈: the same amount, converted by molar mass. Activity calls are given as the source filed them. The calls are words filed in the database; no cut-off is given here.

What was measured:
Cryptococcus neoformans [1] = experiment: Antifungal activity against Cryptococcus neoformans ATCC 90112 after 48 hrs by broth microdilution susceptibility assay; assay type: functional; settings: ATCC 90112, 48 h
Neisseria gonorrhoeae [2] = experiment: Antimicrobial activity against Neisseria gonorrhoeae ATCC 49226 assessed clear zone of inhibition measured per disk by CLSI disk diffusion susceptibility assay; assay type: functional
MCF7 = experiment: Cytotoxicity against human MCF7 cells after 48 hrs by sulforhodamine B assay; assay type: functional; settings: MCF7, 48 h
[3] = test system: Stenotrophomonas maltophilia; experiment: Antimicrobial activity against Stenotrophomonas maltophilia ATCC 13637 assessed clear zone in inhibition per disk by CLSI disk diffusion susceptibility assay; assay type: functional
Micrococcus luteus [4] = experiment: Antimicrobial activity against Micrococcus luteus Presque Isle 456 by broth microdilution susceptibility assay; assay type: functional
A498 = experiment: Cytotoxicity against human A498 cells after 48 hrs by sulforhodamine B assay; assay type: functional
Cryptococcus neoformans [5] = experiment: Antifungal activity against Cryptococcus neoformans ATCC 90112 after 72 hrs by broth microdilution susceptibility assay; assay type: functional; settings: ATCC 90112, 72 h
Neisseria gonorrhoeae [6] = experiment: Antimicrobial activity against Neisseria gonorrhoeae ATCC 49226 by broth microdilution susceptibility assay; assay type: functional
P388 = experiment: Cytotoxicity against mouse P388 cells after 48 hrs by sulforhodamine B assay; assay type: functional; settings: P388, 48 h, read-out: ED50 (the source's name)
KM-20L2 = experiment: Cytotoxicity against human KM20L2 cells after 48 hrs by sulforhodamine B assay; assay type: functional; settings: KM-20L2, 48 h
Staphylococcus aureus [7] = experiment: Antimicrobial activity against Staphylococcus aureus ATCC 29213 by broth microdilution susceptibility assay; assay type: functional
Staphylococcus aureus [8] = experiment: Antimicrobial activity against Staphylococcus aureus ATCC 29213 assessed clear zone in inhibition per disk by CLSI disk diffusion susceptibility assay; assay type: functional
Enterobacter cloacae [9] = experiment: Antimicrobial activity against Enterobacter cloacae ATCC 13047 by broth microdilution susceptibility assay; assay type: functional
OVCAR-3 = experiment: Cytotoxicity against human OVCAR-3 cells after 48 hrs by sulforhodamine B assay; assay type: functional
Micrococcus luteus [10] = experiment: Antimicrobial activity against Micrococcus luteus Presque Isle 456 assessed clear zone in inhibition per disk by CLSI disk diffusion susceptibility assay; assay type: functional
Enterobacter cloacae [11] = experiment: Antimicrobial activity against Enterobacter cloacae ATCC 13047 assessed clear zone in inhibition per disk by CLSI disk diffusion susceptibility assay; assay type: functional
Neisseria gonorrhoeae [12] = experiment: Antimicrobial activity against Neisseria gonorrhoeae ATCC 49226 after 24 hrs by broth microdilution susceptibility assay; assay type: functional; settings: ATCC 49226, 24 h
Escherichia coli [13] = experiment: Antimicrobial activity against Escherichia coli ATCC 25922 by broth microdilution susceptibility assay; assay type: functional
SF-295 = experiment: Cytotoxicity against human SF295 cells after 48 hrs by sulforhodamine B assay; assay type: functional
Candida albicans [14] = experiment: Antifungal activity against Candida albicans ATCC 90028 after 48 hrs by broth microdilution susceptibility assay; assay type: functional; settings: ATCC 90028, 48 h
Streptococcus pneumoniae [15] = experiment: Antimicrobial activity against Streptococcus pneumoniae ATCC 6303 by broth microdilution susceptibility assay; assay type: functional
Candida albicans [16] = experiment: Antimicrobial activity against Candida albicans ATCC 90028 assessed clear zone in inhibition per disk by CLSI disk diffusion susceptibility assay; assay type: functional
NCI-H460 = experiment: Cytotoxicity against human NCI-H460 cells after 48 hrs by sulforhodamine B assay; assay type: functional; settings: NCI-H460, 48 h
Escherichia coli [17] = experiment: Antimicrobial activity against Escherichia coli ATCC 25922 assessed clear zone in inhibition per disk by CLSI disk diffusion susceptibility assay; assay type: functional
SF-268 = experiment: Cytotoxicity against human SF268 cells after 48 hrs by sulforhodamine B assay; assay type: functional
Candida albicans [18] = experiment: Antifungal activity against Candida albicans ATCC 90028 after 24 hrs by broth microdilution susceptibility assay; assay type: functional; settings: ATCC 90028, 24 h
Streptococcus pneumoniae [19] = experiment: Antimicrobial activity against Streptococcus pneumoniae ATCC 6303 assessed clear zone in inhibition per disk by CLSI disk diffusion susceptibility assay; assay type: functional
[20] = test system: Stenotrophomonas maltophilia; experiment: Antimicrobial activity against Stenotrophomonas maltophilia ATCC 13637 by broth microdilution susceptibility assay; assay type: functional
Enterococcus faecalis [21] = experiment: Antimicrobial activity against Enterococcus faecalis ATCC 29212 by broth microdilution susceptibility assay; assay type: functional
Cryptococcus neoformans [22] = experiment: Antimicrobial activity against Cryptococcus neoformans ATCC 90112 assessed clear zone in inhibition per disk by CLSI disk diffusion susceptibility assay; assay type: functional
Enterococcus faecalis [23] = experiment: Antimicrobial activity against Enterococcus faecalis ATCC 29212 assessed clear zone in inhibition per disk by CLSI disk diffusion susceptibility assay; assay type: functional
DU-145 = experiment: Cytotoxicity against human DU145 cells after 48 hrs by sulforhodamine B assay; assay type: functional; settings: DU-145, 48 h
SK-MEL-5 = experiment: Cytotoxicity against human SK-MEL-5 cells after 48 hrs by sulforhodamine B assay; assay type: functional
[24] = Inhibition of tubulin polymerization
BXPC-3 = experiment: Cytotoxicity against human BxPC3 cells after 48 hrs by sulforhodamine B assay; assay type: functional; settings: BXPC-3, 48 h
Streptococcus pneumoniae [25] = experiment: Antimicrobial activity against Streptococcus pneumoniae ATCC 6303 after 24 hrs by broth microdilution susceptibility assay; assay type: functional; settings: ATCC 6303, 24 h

Row | SMILES | MFC (Cryptococcus neoformans [1]) | MIC (Neisseria gonorrhoeae [2]) | GI50 (MCF7) | MIC [3] | MIC (Micrococcus luteus [4]) | GI50 (A498) | MIC (Cryptococcus neoformans [5]) | MIC (Neisseria gonorrhoeae [6]) | EC50 (P388) | GI50 (KM-20L2) | MIC (Staphylococcus aureus [7]) | MIC (Staphylococcus aureus [8]) | MIC (Enterobacter cloacae [9]) | GI50 (OVCAR-3) | MIC (Micrococcus luteus [10]) | MIC (Enterobacter cloacae [11]) | MBC (Neisseria gonorrhoeae [12]) | MIC (Escherichia coli [13]) | MIC (Candida albicans [14]) | MIC (Streptococcus pneumoniae [15]) | further results
1 | O=[N+]([O-])/C=C/c1ccc(O)cc1 | 8 µg/mL (≈ 48.4 µM) | <0.78 µg | 0.48 µg/mL (≈ 2.91 µM) | 6.25 µg | > 64 µg/mL | inactive | 8 µg/mL (≈ 48.4 µM) | 4 µg/mL (≈ 24.2 µM) | 1.5 µg/mL (≈ 9.08 µM) | 1.5 µg/mL (≈ 9.08 µM) | > 64 µg/mL | 50 µg | > 64 µg/mL | inactive | >100 µg | 25 µg | 4 µg/mL (≈ 24.2 µM) | > 64 µg/mL | 16 µg/mL (≈ 96.9 µM) | 64 µg/mL (≈ 388 µM) | GI50 (SF-295; SF-295, 48 h): 1.7 µg/mL (≈ 10.3 µM); MIC (Candida albicans [16]): 12.5 µg; GI50 (NCI-H460): 1.7 µg/mL (≈ 10.3 µM); MIC (Escherichia coli [17]): 12.5 µg; GI50 (SF-268): inactive; MFC (Candida albicans [18]): 16 µg/mL (≈ 96.9 µM); MIC (Streptococcus pneumoniae [19]): 6.25 µg; MIC [20]: > 64 µg/mL; MIC (Enterococcus faecalis [21]): > 64 µg/mL; MIC (Cryptococcus neoformans [22]): 6.25 µg; MIC (Enterococcus faecalis [23]): 6.25 µg; GI50 (DU-145): 1.5 µg/mL (≈ 9.08 µM); GI50 (SK-MEL-5): inactive; IC50 [24]: 10 µM; GI50 (BXPC-3): 1.6 µg/mL (≈ 9.69 µM)
2 | COc1cc(/C=C/[N+](=O)[O-])cc(OC)c1O | 64 µg/mL (≈ 284 µM) | 1.56 µg | 0.44 µg/mL (≈ 1.95 µM) | 50 µg | > 64 µg/mL | inactive | 64 µg/mL (≈ 284 µM) | 4 µg/mL (≈ 17.8 µM) | 2.2 µg/mL (≈ 9.77 µM) | 1.1 µg/mL (≈ 4.88 µM) | > 64 µg/mL | >100 µg | > 64 µg/mL | inactive | >100 µg | >100 µg | 4 µg/mL (≈ 17.8 µM) | > 64 µg/mL | > 64 µg/mL | 64 µg/mL (≈ 284 µM) | MBC (Streptococcus pneumoniae [25]): > 64 µg/mL; GI50 (SF-295): inactive; MIC (Candida albicans [16]): 50 µg; GI50 (NCI-H460): 0.38 µg/mL (≈ 1.69 µM); MIC (Escherichia coli [17]): >100 µg; GI50 (SF-268; SF-268, 48 h): 0.54 µg/mL (≈ 2.4 µM); MIC (Streptococcus pneumoniae [19]): 6.25 µg; MIC [20]: > 64 µg/mL; MIC (Enterococcus faecalis [21]): > 64 µg/mL; MIC (Cryptococcus neoformans [22]): 25 µg; MIC (Enterococcus faecalis [23]): 50 µg; GI50 (DU-145): 0.36 µg/mL (≈ 1.6 µM); GI50 (SK-MEL-5): inactive; IC50 [24]: 8.5 µM; GI50 (BXPC-3): 1.5 µg/mL (≈ 6.66 µM)
3 | COc1ccc(/C=C/[N+](=O)[O-])cc1 | 16 µg/mL (≈ 89.3 µM) | 0.78 µg | 0.54 µg/mL (≈ 3.01 µM) | 12.5 µg | > 64 µg/mL | inactive | 16 µg/mL (≈ 89.3 µM) | 2 µg/mL (≈ 11.2 µM) | 1.7 µg/mL (≈ 9.49 µM) | 1.5 µg/mL (≈ 8.37 µM) | > 64 µg/mL | 12.5 µg | > 64 µg/mL | inactive | 50 µg | 12.5 µg | 2 µg/mL (≈ 11.2 µM) | > 64 µg/mL | 8 µg/mL (≈ 44.6 µM) | > 64 µg/mL | GI50 (SF-295; SF-295, 48 h): 1.6 µg/mL (≈ 8.93 µM); MIC (Candida albicans [16]): 3.12 µg; GI50 (NCI-H460): 1.7 µg/mL (≈ 9.49 µM); MIC (Escherichia coli [17]): 6.25 µg; GI50 (SF-268): inactive; MFC (Candida albicans [18]): 16 µg/mL (≈ 89.3 µM); MIC (Streptococcus pneumoniae [19]): 6.25 µg; MIC [20]: > 64 µg/mL; MIC (Enterococcus faecalis [21]): > 64 µg/mL; MIC (Cryptococcus neoformans [22]): 1.56 µg; MIC (Enterococcus faecalis [23]): 50 µg; GI50 (DU-145): 1.7 µg/mL (≈ 9.49 µM); GI50 (SK-MEL-5): inactive; IC50 [24]: 5.7 µM; GI50 (BXPC-3): 1.8 µg/mL (≈ 10 µM)
4 | COc1ccc(/C=C/[N+](=O)[O-])cc1OC | 16 µg/mL (≈ 76.5 µM) | 0.78 µg | 0.53 µg/mL (≈ 2.53 µM) | >100 µg | > 64 µg/mL | inactive | 16 µg/mL (≈ 76.5 µM) | 4 µg/mL (≈ 19.1 µM) | 0.34 µg/mL (≈ 1.63 µM) | 1.3 µg/mL (≈ 6.21 µM) | > 64 µg/mL | 25 µg | > 64 µg/mL | inactive | 50 µg | >100 µg | 4 µg/mL (≈ 19.1 µM) | > 64 µg/mL | 16 µg/mL (≈ 76.5 µM) | > 64 µg/mL | GI50 (SF-295): inactive; MIC (Candida albicans [16]): 6.25 µg; GI50 (NCI-H460): 0.46 µg/mL (≈ 2.2 µM); MIC (Escherichia coli [17]): 25 µg; GI50 (SF-268; SF-268, 48 h): 0.71 µg/mL (≈ 3.39 µM); MFC (Candida albicans [18]): 16 µg/mL (≈ 76.5 µM); MIC (Streptococcus pneumoniae [19]): 12.5 µg; MIC [20]: > 64 µg/mL; MIC (Enterococcus faecalis [21]): > 64 µg/mL; MIC (Cryptococcus neoformans [22]): 3.12 µg; MIC (Enterococcus faecalis [23]): 25 µg; GI50 (DU-145): 1.4 µg/mL (≈ 6.69 µM); GI50 (SK-MEL-5): inactive; IC50 [24]: 6 µM; GI50 (BXPC-3): 1.5 µg/mL (≈ 7.17 µM)
